This is an account of results in patent publication US20160025704A1, “METHODS FOR IDENTIFYING NEUROPROTECTIVE PKC ACTIVATORS” (priority 2013, published 2016).

Test [1] relates to fragile X transgenic mice. As to the kind of experiment: Synapses in fragile X transgenic mice. The class given is in vivo. The following applies: 25 μg/kg body weight intraperitoneal twice a week for 3 months. As to the method: Protocol: Bryostatin (25 μg/kg body weight, intraperitoneal injection) was administered to 2 month old fragile X transgenic mice twice a week for 3 months. […] Non-treated groups (WC and TC) received the same vehicle volumes, mechanism of delivery, and frequency of administration as the treated groups.

Test [2] has as its system neurons in the CA1 hippocampal area. Put plainly: Apoptotic cell death (TUNEL) in hippocampal CA1 area after ischemic (2-VO)/hypoxic event. The following applies: 15 μg/m^2 tail vein, 2 doses/week for 10 doses, starting 24 hours after ischemic/hypoxic event; staining 9 day after last dose. It counts as in vivo. As to the method:
Protocol: Bryostatin-1 (15 μg/m^2) was administered through a tail vein (2 doses/week, for 10 doses), starting 24 hours after the end of the ischemic (2-VO)/hypoxic event. Staining for apoptotic cell death in the hippocampal CA1 area was performed 9 day after the last bryostatin-1 dose. […] (C) Quantification of TUNEL staining in stratum radiatum (n=3 animals; n=30 confocal images). Con=control; Bry=bryostatin-1; Isch=cerebral ischemia; ***, P<0.001.

The test system of test [3] is human neprilysin. As to the kind of experiment: Membrane localization of neprilysin in SH+hNEP cells (biotinylation, Western blot). The class given is cell-based. The following applies: 1 nM. The method, then:
Protocols: SHSYSY cells overexpressing human neprilysin (SH+hNEP cells) were incubated with 1 μM oligomeric Aβ(1-42) for 4 hours in the absence or presence of bryostatin (Bryo, 1 nM). Some cells were pre-treated with Ro 32-0432 (Ro, 2 μM, a PKC inhibitor) for 30 min and then treated with Bryo. Cell surface-located proteins were then biotinylated and extracted using streptavidin beads, followed by immunoprecipitation using a neprilysin antibody Immunoprecipitates were subjected to Western blot analysis using neprilysin antibody (Mean+SEM of three independent experiments, **P<0.01, Aβ compared with untreated; #P<0.01, Ro+Bryo compared with Bryo). Results are shown below in FIG. 17.
Protocol: After SH+hNEP cells were untreated or treated with bryostatin (Bryo, 1 nM), or pre-treated with PKC inhibitor Ro 32-0432 (Ro, 2 μM) for 30 min and then treated with Bryo for 1 hour, cell surface located proteins were biotinylated and pulled down using streptavidin beads, followed by immunoprecipitation using a neprilysin antibody. […] Cells were then lysed and neprilysin activity was measured. […] Further incubation with leucine aminopeptidases released free 4-methoxy-2-naphthylamide that was measured fluorometrically at an emission of 425 nm. […]
A general note: A western blot detects proteins with antibodies after separation by electrophoresis.

Test [4] relates to human neprilysin. As to the kind of experiment: Neprilysin activity in SH+hNEP cells (fluorometric). To be noted: 1 nM for 15 min to 3 hours; 0.27, 0.5, 1, or 2 nM for 1 hr (FIG. 32). The class given is cell-based. As to the method:
Protocol: Intact SH+hNEP cells were incubated in the absence or presence of bryostatin (1 nM) for 15 min, 30 min, 1 hour, or 3 hours. Cells were then lysed and neprilysin activity was measured. 50 μg of total lysates were separately incubated with 0.5 mM glutaryl-Ala-Ala-Phe-4-methoxy-2-naphthylamide as a substrate. Further incubation with leucine aminopeptidases released free 4-methoxy-2-naphthylamide that was measured fluorometrically at an emission of 425 nm (Mean+SEM of three independent experiments, *P<0.05; **P<0.01, Bryo compared with untreated condition). Intact SH+hNEP cells were incubated in the absence or presence of bryostatin (Bryo) at 0.27, 0.5, 1, or 2 nM concentration for 1 hr, lysed and then neprilysin activity for each condition was fluorometically measured as shown in (A) (Mean+SEM of three independent experiments, *P<0.05; **P<0.01, Bryo compared with untreated condition). Results are shown below in FIG. 32 (A—fluorometric results of free 4-methoxy-2-naphthylamide measured at different time points; B—fluorometric results of free 4-methoxy-2-naphthylamide measured at different concentrations of bryostatin).
Immunoprecipitates were subjected to Western blot analysis using phospho-Ser/Thr or neprilysin antibody (Mean+SEM of three independent experiments, **P<0.01, Bryo compared with untreated; #P<0.01, Ro+Bryo compared with Bryo). […]

With `CCC/C=C/C=C/C(=O)O[C@H]1/C(=C/C(=O)OC)C[C@H]2C[C@H]([C@@H](C)O)OC(=O)C[C@H](O)C[C@@H]3C[C@H](OC(C)=O)C(C)(C)[C@](O)(C[C@@H]4C/C(=C/C(=O)OC)C[C@H](/C=C/C(C)(C)[C@]1(O)O2)O4)O3` [Bryostatin, bryostatin-1], in test [1], the “losses of postsynaptic dendritic spines” value was “rescued the losses of”, the “losses of presynaptic vesicles within presynaptic axonal boutons” value is “rescued the losses of” and the losses of synapses result is listed as “rescued the losses of synapses”. In test [2], the “apoptotic cell death in neurons in the CA1 hippocampal area” value was “prevents apoptotic cell death”. Moreover, the “membrane localization of neprilysin protein inhibited by Aβ” value with human neprilysin [3] (1 μM oligomeric Aβ(1-42), 4 hours) was “recovers membrane localization of neprilysin protein inhibited by Aβ”. Also, in the test with human neprilysin [3] (1 hour, without Aβ), the neprilysin membrane localization result is given as “enhances neprilysin membrane localization”. For the same compound, in the test on human neprilysin [4], the neprilysin activity result is recorded as “increases neprilysin activity”.
